Results reported in patent US20090298752A1, “APLIDINE TREATMENT OF CANCERS” (PHARMA MAR, S.A., priority 1999, published 2009).
Entries after “also recorded” stand apart in the source; their conditions may differ.

Key:
[1] = test system: VEGF; experiment: VEGF secretion from MOLT-4 cells (ELISA); type: cell-based, human
Method: Cells were treated for 1 h with 20 nM aplidine. VEGF secreted in the medium was measured by ELISA at the end of treatment and after 6 and 24 hours incubation in drug-free medium.

[2] = test system: AP-1; experiment: gel retardation assay, transcription factor binding; type: biochemical; settings: nuclear extracts incubated with aplidine, 60 min
Method: Nuclear extracts were incubated with different aplidine concentrations and labelled oligonucleotides for 60 min. Using gel retardation assay the binding of HIF-1 or AP-1 has been monitored.

[3] = Phase I, 1 h weekly infusion x3 q4wk: toxicity and pharmacokinetics; type: in vivo, human
[4] = test system: ETR; experiment: cDNA expression array in MOLT-4 cells; type: cell-based, human
Method: (§1) The early changes in gene expression induced by aplidine in MOLT-4 cells were evaluated by using cDNA expression arrays (Atlas Human Cancer, Clontech). MOLT-4 cells were treated for 1 hour with concentrations of aplidine which inhibit the growth by 50% and total RNA was isolated at 0, 1, 6 and 24 hours after drug wash out. Filters were hybridised with equal amount of 32P labelled cDNA. Analysis of the results was carried out using ATLAS IMAGE 1.0 software. Changes in gene expression greater than 2 fold were taken as significant changes in RNA expression and subsequently confirmed by PCR.
as §1, with “In the present study we have evaluated the early” for “The early”, “cells” for “cells were evaluated”, “of aplidien” for “of aplidine”, “isolated t” for “isolated at”, “equal amounts” for “equal amount”, “PCR. […] Whether the down-regulation of flt-1 is involved in the cytotoxic and antitumour effect of aplidine is under investigation at the moment.” for “PCR.”
The human leukaemia cell line MOLT-4 was used for these experiments MOLT-4 cells were treated for 1 hour with 20 nM of aplidine. Total RNA was extracted at the end of treatment and 6 and 24 hours after recovery in drug-free medium.
5 μg of total RNA were retrotanscribed to cDNA in the presence of ^32P dATP. Equal amounts of radioactive probes were hybridised to Atlas Human Cancer Microarrays (Clontech). After washing, filter were exposed and the results analysed using the Atlas Image software. Only a gene expression difference greater than 2 fold between treated and untreated cells were taken into account. RT-PCR and northern analysis have been performed to confirm the changes in gene expression found with the microarrays.

[5] = test system: Prostate PC-3; experiment: sc hollow fibre (HF), prostate tumour cells, rat; type: in vivo; settings: 0.70 mg/kg, 0.7 mg/kg
Method: (§2) Different model systems were evaluated to provide the basis for further clinical work. Selective antitumour activities were seen against two histologically different solid tumours: human gastric and prostate carcinomas. Potent in vitro activity to primary gastric tumour specimens or Hs746T gastric tumour cells is evident with IC30 values of 146 and 450 pM, respectively. […] activities were evaluated in nude rodents using sc implanted tumour fragments or hollow fibres (HF) containing tumour cells.
Follow-up studies necessitated using rats for iv infusions. With this variation, a 24 hr iv infusion schedule produced similar activities against HF gastric (20%) and HF prostate (31%) tumour cells. Cytotoxicity was also found using a 5 day iv infusion schedule against HF prostate tumour cells (33%).

[6] = test system: solid tumours and Non-Hodgkin's Lymphomas; experiment: Phase I, 1 h daily infusion x5 q3wk: antitumour activity; type: in vivo, human
Method: The objectives are to determine the Maximum Tolerated Dose, the Dose Limiting Toxicity (DLT), the pharmacokinetics (PK) and the recommended dose for phase 2 studies that can be given in a daily 1 hour IV infusion×5 days q 3 weeks. Patients with solid tumours and low and intermediate grade Non-Hodgkin's Lymphomas were eligible. The daily starting dose of aplidine was 80 μg/m^2. Cohorts of 3 patients (pts) are treated at each level with dose escalation according to toxicity, 20 patients were treated with 6 dose levels ranging from 80 μg-720 μg/m^2, 1 patient is presently at the dose of 960 μg/m^2. At total of 48 cycles were administered. Non-haematological toxicities were grade 1 and 2 with fatigue reported in most pts. Grade 1 hypersensitivity reactions were documented in 7 patients. Other toxicities included nausea, anorexia, diarrhoea, and anxiety. […] PK analysis was performed in treatment course 1. Aplidine concentrations were analysed by LC tandem mass spectrography. […] Potentially therapeutic plasma concentrations ([…]) were achieved. […] Accrual is ongoing at 960 μg/m^2.

[7] = test system: advanced solid tumours and lymphoma; experiment: Phase I, 1 h weekly infusion x3 q4wk: antitumour activity; type: in vivo, human
Description: Adult patients with advanced disease, PS<3, and appropriate organ function are considered eligible; patients receive aplidine wk×3/q^4 wks. 24 solid tumour patients have been entered: median (m) age 55 y, m ECOG=1, 15/24 patients treated with =>2 treatment cycles. Seven dose levels (DL) from 133 mcg/m^2/wk to 2700 mcg/m^2/wk have been assessed: 102 infusions are evaluable for toxicity (tox). […] At 2700 mcg/m^2/wk (4 pts), 1 had G3 hiperbilirrubinemia that has been considered to be dose limiting and therefore 2700 mcg/m^2/wk DL is being expanded. […] Plasma levels >1 ng/ml 24 hours after infusion are reachable form 1800 mcg/m^2/wk. […] Aplidine appears to be clinically feasible at pharmacologically appropriate dose levels.
Aplidine was administered as a 1 hour weekly×3 every four weeks

[8] = test system: cell cycle; settings: flow cytometric analysis; cited from earlier work
[9] = test system: VEGF; experiment: VEGF secretion from IGROV-1; type: cell-based, human
[10] = test system: PC-3 prostate tumour cells; experiment: in vitro activity on prostate tumour cells; type: cell-based, human
Method: as §2

Substance: aplidine
- intracellular VEGF [1]: increased intracellular accumulation of VEGF
- VEGF secretion, in words ([1]; 1 h with 20 nM aplidine): strong reduction of VEGF secretion; also recorded: severely inhibit production; also recorded: Blocks VEGF Secretion
- concentration at which block of VEGF secretion is already observable ([1]; concentration-dependent): 5 nm
- binding of AP-1 to consensus DNA sequence [2]: does not block the binding; also recorded: did not change the ability
- Alk. Phos. G3 (worst toxicity per patient) ([3]; 2700 mcg/m^2/wk x3, 8 patients, footnote DLT): (1)^(2)
- Transaminitis G3 (worst toxicity per patient) ([3]; 2700 mcg/m^2/wk x3, 8 patients, one with Hepatitis C, 2 reversible by day 8, 1 DLT): 4
- Myalgia G2 (worst toxicity per patient) ([3]; 3600 mcg/m^2/wk x3, 2 patients): 1
- ETR levels, in words ([4]; MOLT-4, 20 nM 1 h, after 6 and 24 hours): returned to normal level
- expression of early response gene ETR, in words ([4]; MOLT-4, 20 nM 1 h, at the end of treatment): increased
- quantitative change in ETR expression ([4]; MOLT-4, 1 h treatment, 1 Hour): +2.7 fold
- Activity (% T/C.) ([5]; 24 hr.iv inf.): 31 % T/C
- Activity (% T/C.) ([5]; 5 day, iv inf): 33 % T/C
- duration of stable disease, colon cancer ([6]; 1 patient): 9 months
- response, renal cell cancer ([6]; 1 patient): mixed response
- objective responses ([6]; in vivo): No objective responses
- reduction in the size of the tumor, heavily pre-treated CRC ([6]; one patient): 40%
- reduction in sum of tumour measurements, renal cell cancer and liver mets ([6]; one patient, mixed responses): 10%
- duration of stable disease, heavily pre-treated CRC ([6]; one patient, total 13 cycles): ≥ 6 months
- response, Pat #16, gastric adenocarcinoma resistant to FAM ([7]; 1200 μg/m^2 weekly): Slight improvement in the lymph node masses
- activity in gastric cancer ([7]; 1 patient at 1200 mcg/m^2): Early hints of activity
- response, advanced renal cancer resistant to VBL-IFN ([7]; 2700 mcg/m^2/wk DL): ongoing objective response
- response, Pat #23, kidney carcinoma with pulmonary nodules ([7]; after 2 infusions at 2700 μg/m^2 weekly): Partial remission in lung nodules
- response, Pat #29, kidney carcinoma ([7]; after 3 infusion): Clinical improvement
- cell cycle pertubations [8]: did not induce any apparent cell cycle pertubations
- secretion of VEGF, in words [9]: reduce the secretion of VEGF
- IC50 [10]: 3.4 nM
